In PubChem BioAssay AID1919017 (Molecular Pharmacology Branch, DTP, NCI, 2023) one finds IC50 and viability, T/C data, which are given here for 5 compounds.

Each structure is given as a SMILES string. Values joined by “and” are separate entries in the source; they are usually repeats but may differ in a detail not shown here. Identical values can stand only once. A value given as a limit tells only on which side of the number the result lay.

The test system of the experiment is SW1271 complex spheroids with HUVEC/MSC, growth, % test/control. The experiment is described as follows: Anticancer human tumor SW1271 cell line growth inhibition [AhR].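 On all read-outs here: spheroids exposed to agents for 7 days before readout.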 Conditions: for viability, T/C: stronger effect = lower value. Summed up:
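Agents were dosed in half-log steps down from roughly clinical Cmax, or from 10 microM where Cmax was unknown, alone and with AhR antagonists. Read-out: percent test/control growth of tumor spheroids containing HUVEC and MSC stromal cells.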

Where [1] appears, read: curve of first compound, second compound 0.1 µM.
Where [2] appears, read: curve of first compound, second compound 0.316 µM.
Setting [3] is: curve of first compound, second compound 1 µM.
Where [4] appears, read: curve of first compound, second compound 3.16 µM.
[5] abbreviates: curve of first compound, second compound 10 µM.
[6] abbreviates: second compound 0.1 µM, first compound 0.0316 µM.
Where [7] appears, read: second compound 0.1 µM, first compound 0.1 µM.
Where [8] appears, read: second compound 0.316 µM, first compound 0.0316 µM.
Where [9] appears, read: second compound 0.316 µM, first compound 0.1 µM.
Setting [10] is: second compound 1 µM, first compound 0.0316 µM.
Setting [11] is: second compound 1 µM, first compound 0.1 µM.
[12] abbreviates: second compound 3.16 µM, first compound 0.0316 µM.
[13] abbreviates: second compound 3.16 µM, first compound 0.1 µM.
The mark [14] stands for this setting: second compound 10 µM, first compound 0.0316 µM.
Setting [15] is: second compound 10 µM, first compound 0.1 µM.

The term IC50 denotes the concentration at which inhibition is half-maximal. What is called viability, T/C is the result in the treated group divided by that in the control group, in per cent. Regarding `CC(C)c1c(-c2ccccc2)nc2c(C#N)c[nH]n2c1=O` + Cc1cncc(-c2nc(NCCc3c[nH]c4ccccc34)c3ncn(C(C)C)c3n2)c1, the IC50 is greater than 10000 nM under setting [1]; greater than 10000 nM under setting [2]; greater than 10000 nM under setting [3]; greater than 10000 nM under setting [4]; 472 nM under setting [5]. Moreover, the viability, T/C under setting [6] was 104%; the viability, T/C under setting [7] was 104%; the viability, T/C (second compound 0.1 µM, first compound 0.316 µM) was 96.4%; the viability, T/C (second compound 0.1 µM, first compound 1 µM) is 111%; the viability, T/C (second compound 0.1 µM, first compound 3.16 µM) is 102%; the viability, T/C (second compound 0.1 µM, first compound 10 µM) is 108%. Moreover, the viability, T/C is 85.2% under setting [8]; 121% under setting [9]; 100% (second compound 0.316 µM, first compound 0.316 µM); 96.3% (second compound 0.316 µM, first compound 1 µM); 95.9% (second compound 0.316 µM, first compound 3.16 µM); 106% (second compound 0.316 µM, first compound 10 µM). For the same compound, the viability, T/C under setting [10] was 89.5%; the viability, T/C under setting [11] was 111%; the viability, T/C (second compound 1 µM, first compound 0.316 µM) was 87.6%; the viability, T/C (second compound 1 µM, first compound 1 µM) is 80.2%; the viability, T/C (second compound 1 µM, first compound 3.16 µM) is 87.7%; the viability, T/C (second compound 1 µM, first compound 10 µM) is 82.5%. Further, the viability, T/C runs as follows: under setting [12], 90.1%; under setting [13], 93.7%; (second compound 3.16 µM, first compound 0.316 µM) 109%; (second compound 3.16 µM, first compound 1 µM) 91.5%; (second compound 3.16 µM, first compound 3.16 µM) 99.2%; (second compound 3.16 µM, first compound 10 µM) 99.9%. Besides, the viability, T/C by setting is: under setting [14], 53.4%; under setting [15], 58%; (second compound 10 µM, first compound 0.316 µM) 48%; (second compound 10 µM, first compound 1 µM) 48.2%; (second compound 10 µM, first compound 3.16 µM) 44.8%; (second compound 10 µM, first compound 10 µM) 50.4%.
`CC(C)CC(NC(=O)C(Cc1ccccc1)NC(=O)c1cnccn1)B(O)O` (centres undefined) + Cc1ccccc1N=Nc1ccc(NC(=O)c2ccnn2C)c(C)c1: the IC50 amounted to 5.48 nM under setting [1]; 5.4 nM under setting [2]; 5.73 nM under setting [3]; 5.73 nM under setting [4]; 6.76 nM under setting [5]. Also, the viability, T/C by setting is: (second compound 0.1 µM, first compound 0.000949 µM) 105%; (second compound 0.1 µM, first compound 0.003 µM) 97%; (second compound 0.1 µM, first compound 0.00949 µM) 7.2%; (second compound 0.1 µM, first compound 0.03 µM) 1.26%; (second compound 0.1 µM, first compound 0.0949 µM) 0.41%; (second compound 0.1 µM, first compound 0.3 µM) 0.31%. Moreover, the viability, T/C by setting is: (second compound 0.316 µM, first compound 0.000949 µM) 91.4%; (second compound 0.316 µM, first compound 0.003 µM) 90.3%; (second compound 0.316 µM, first compound 0.00949 µM) 11.3%; (second compound 0.316 µM, first compound 0.03 µM) 0.73%; (second compound 0.316 µM, first compound 0.0949 µM) 11.2%; (second compound 0.316 µM, first compound 0.3 µM) 6.11%. In addition, the viability, T/C by setting is: (second compound 1 µM, first compound 0.000949 µM) 123%; (second compound 1 µM, first compound 0.003 µM) 101%; (second compound 1 µM, first compound 0.00949 µM) 10.2%; (second compound 1 µM, first compound 0.03 µM) 1.95%; (second compound 1 µM, first compound 0.0949 µM) 1.1%; (second compound 1 µM, first compound 0.3 µM) 0.56%. Moreover, the viability, T/C runs as follows: (second compound 3.16 µM, first compound 0.000949 µM) 92.9%; (second compound 3.16 µM, first compound 0.003 µM) 89.4%; (second compound 3.16 µM, first compound 0.00949 µM) 19.4%; (second compound 3.16 µM, first compound 0.03 µM) 1.27%; (second compound 3.16 µM, first compound 0.0949 µM) 0.6%; (second compound 3.16 µM, first compound 0.3 µM) 0.68%. The viability, T/C (second compound 10 µM, first compound 0.000949 µM) was 93.1%; the viability, T/C (second compound 10 µM, first compound 0.003 µM) was 99.5%; the viability, T/C (second compound 10 µM, first compound 0.00949 µM) is 30.8%; the viability, T/C (second compound 10 µM, first compound 0.03 µM) is 2.17%; the viability, T/C (second compound 10 µM, first compound 0.0949 µM) was 0.87%; the viability, T/C (second compound 10 µM, first compound 0.3 µM) was 0.59%.
As for `Cn1ncnc1C1c2n[nH]c(=O)c3cc(F)cc(c23)NC1c1ccc(F)cc1` (centres undefined) + Cc1cncc(-c2nc(NCCc3c[nH]c4ccccc34)c3ncn(C(C)C)c3n2)c1, the IC50 reads like this: under setting [1], greater than 100 nM; under setting [2], greater than 100 nM; under setting [3], greater than 100 nM; under setting [4], greater than 100 nM; under setting [5], greater than 100 nM. The viability, T/C is, setting by setting: (second compound 0.1 µM, first compound 0.000316 µM) 111%; (second compound 0.1 µM, first compound 0.001 µM) 103%; (second compound 0.1 µM, first compound 0.00316 µM) 94.4%; (second compound 0.1 µM, first compound 0.01 µM) 119%; under setting [6], 110%; under setting [7], 107%. Further, the viability, T/C reads like this: (second compound 0.316 µM, first compound 0.000316 µM) 96.2%; (second compound 0.316 µM, first compound 0.001 µM) 90.7%; (second compound 0.316 µM, first compound 0.00316 µM) 88.6%; (second compound 0.316 µM, first compound 0.01 µM) 98.2%; under setting [8], 77.4%; under setting [9], 91%. Further, the viability, T/C (second compound 1 µM, first compound 0.000316 µM) was 91.8%; the viability, T/C (second compound 1 µM, first compound 0.001 µM) was 103%; the viability, T/C (second compound 1 µM, first compound 0.00316 µM) is 92.4%; the viability, T/C (second compound 1 µM, first compound 0.01 µM) is 95.8%; the viability, T/C under setting [10] was 94.7%; the viability, T/C under setting [11] is 83.3%. Besides, the viability, T/C is 103% (second compound 3.16 µM, first compound 0.000316 µM); 105% (second compound 3.16 µM, first compound 0.001 µM); 88.2% (second compound 3.16 µM, first compound 0.00316 µM); 92% (second compound 3.16 µM, first compound 0.01 µM); 98.6% under setting [12]; 94.7% under setting [13]. Besides, the viability, T/C (second compound 10 µM, first compound 0.000316 µM) is 44.9%; the viability, T/C (second compound 10 µM, first compound 0.001 µM) is 43.8%; the viability, T/C (second compound 10 µM, first compound 0.00316 µM) was 86.5%; the viability, T/C (second compound 10 µM, first compound 0.01 µM) is 53.5%; the viability, T/C under setting [14] is 61.3%; the viability, T/C under setting [15] is 40.7%.
For the compound `CC1(C)CCC(CN2CCN(c3ccc(C(=O)NS(=O)(=O)c4ccc(NCC5CCOCC5)c([N+](=O)[O-])c4)c(Oc4cnc5[nH]ccc5c4)c3)CC2)=C(c2ccc(Cl)cc2)C1`, the viability, T/C is, setting by setting: (compound 0.0316 µM) 93.6% and 94.9% and 90.9%; (compound 0.1 µM) 107% and 101% and 97.1%; (compound 0.316 µM) 104% and 75% and 108%; (compound 1 µM) 92.9% and 102% and 94.2%; (compound 3.16 µM) 101% and 110% and 105%; (compound 10 µM) 88% and 72.9% and 74.4%. Further, where the note is “curve of compound”, the IC50 is greater than 10000 nM.
Turning to `CC[C@@]1(O)C(=O)OCc2c1cc1n(c2=O)Cc2cc3c(CN(C)C)c(O)ccc3nc2-1`, the viability, T/C reads like this: (compound 0.000316 µM) 105% and 80.9% and 102%; (compound 0.001 µM) 108% and 64.1% and 91.1%; (compound 0.00316 µM) 80.9% and 87% and 83.4%; (compound 0.01 µM) 91.5% and 70% and 96.8%; (compound 0.0316 µM) 89% and 65% and 78.6%; (compound 0.1 µM) 74.6% and 45.2% and 70%. In addition, the IC50 (curve of compound) was > 100 nM and 75.4 nM.
